Two compounds from ChEMBL document CHEMBL5608173, “Discovery of novel natural-product-derived mutant isocitrate dehydrogenases 1 inhibitors: Structure-based virtual screening, biological evaluation and structure-activity relationship study” (Eur J Med Chem, 2024) can be followed below.

Data set [1] has as its target T1, Isocitrate dehydrogenase [NADP] cytoplasmic (Homo sapiens, UniProt O75874, R132C). Briefly: Inhibition of IDH1 R132C mutant (unknown origin).
Data set [2] concerns the target T2, Isocitrate dehydrogenase [NADP] cytoplasmic (Homo sapiens, UniProt O75874, R132H). Briefly: Inhibition of IDH1 R132H mutant (unknown origin).
Data set [3] concerns the target T2, Isocitrate dehydrogenase [NADP] cytoplasmic. Briefly: Inhibition of IDH1 R132H mutant in human U-87 MG cells assessed as reduction in 2-HG level incubated for 48 hrs in presence of NAD+ by resazurin fluorescence dye based Sigma MAK320-1 assay kit analysis. The data set is classed as cell-based.
Data set [4] deals with Isocitrate dehydrogenase [NADP] cytoplasmic (Homo sapiens), O75874 [R132C]. Put plainly: Inhibition of recombinant human IDH1 R132C mutant extracted from Escherichia coli BL21 (DE3) cells using alpha-ketoglutarate as substrate at 0.2 uM incubated for 60 mins in presence of NADPH by absorbance based assay relative to control.
Sequence of Isocitrate dehydrogenase [NADP] cytoplasmic (Homo sapiens), O75874 [R132C] (O75874 whole entry R132C): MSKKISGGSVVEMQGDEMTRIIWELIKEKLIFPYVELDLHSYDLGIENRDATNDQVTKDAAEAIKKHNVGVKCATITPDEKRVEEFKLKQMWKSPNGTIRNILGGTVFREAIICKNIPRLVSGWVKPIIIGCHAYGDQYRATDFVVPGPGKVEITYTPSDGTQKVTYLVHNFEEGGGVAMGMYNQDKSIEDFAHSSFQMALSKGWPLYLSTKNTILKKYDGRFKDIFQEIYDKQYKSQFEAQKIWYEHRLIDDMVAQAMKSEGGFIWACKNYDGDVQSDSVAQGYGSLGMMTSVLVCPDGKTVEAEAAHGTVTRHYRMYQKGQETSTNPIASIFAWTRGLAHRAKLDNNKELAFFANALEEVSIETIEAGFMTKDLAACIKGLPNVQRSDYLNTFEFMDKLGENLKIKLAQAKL
For data set [5] the test system is unchanged. Briefly: Inhibition of recombinant human IDH1 R132C mutant extracted from Escherichia coli BL21 (DE3) cells using alpha-ketoglutarate as substrate at 2 uM incubated for 60 mins in presence of NADPH by absorbance based assay relative to control.
For data set [6], the system named is U-87 MG. Put plainly: Antiproliferative activity against human U-87 MG cells assessed as reduction in cell viability incubated for 72 hrs by MTT assay. The class given is functional, U-87MG ATCC.
Data set [7] addresses T1, Isocitrate dehydrogenase [NADP] cytoplasmic. Put plainly: Inhibition of recombinant human IDH1 R132C mutant extracted from Escherichia coli BL21 (DE3) cells using alpha-ketoglutarate as substrate incubated for 60 mins in presence of NADPH by absorbance based assay.
A further data set has as its system L02. Put plainly: Cytotoxicity against human L02 cells assessed as inhibition of cell growth at 50 uM. The data set is classed as toxicity, cell-based. To be noted: l02, 50 µM.
Data set [8] concerns the target T1, Isocitrate dehydrogenase [NADP] cytoplasmic. Put plainly: Inhibition of IDH1 R132C mutant in human HT-1080 cells assessed as reduction in 2-HG level incubated for 48 hrs in presence of NAD+ by resazurin fluorescence dye based Sigma MAK320-1 assay kit analysis. The class given is cell-based.
Data set [9] concerns Isocitrate dehydrogenase [NADP] cytoplasmic (Homo sapiens), O75874 [R132H]. Put plainly: Inhibition of recombinant human IDH1 R132H mutant extracted from Escherichia coli BL21 (DE3) cells using alpha-ketoglutarate as substrate at 0.2 uM incubated for 60 mins in presence of NADPH by absorbance based assay relative to control.
Sequence of Isocitrate dehydrogenase [NADP] cytoplasmic (Homo sapiens), O75874 [R132H] (O75874 whole entry R132H): as the sequence (O75874 whole entry R132C) above, with C132H counted along it
The test system is the same in data set [10]. Briefly: Inhibition of recombinant human IDH1 R132H mutant extracted from Escherichia coli BL21 (DE3) cells using alpha-ketoglutarate as substrate at 2 uM incubated for 60 mins in presence of NADPH by absorbance based assay relative to control.
Data set [11] deals with U-87 MG. Briefly: Antiproliferative activity against human U-87 MG cells harboring IDH1 R132H mutant assessed as reduction in cell viability incubated for 72 hrs by MTT assay. The data set is classed as functional, U-87MG ATCC. For orientation: Formazan colour is commonly taken as a measure of viable cells.
Data set [12] has as its target Isocitrate dehydrogenase [NADP] cytoplasmic (Homo sapiens, UniProt O75874). Briefly: Inhibition of recombinant human wildtype IDH1 extracted from Escherichia coli BL21 (DE3) cells using alpha-ketoglutarate as substrate incubated for 60 mins in presence of NADPH by absorbance based assay.
For data set [13], the target named is T2, Isocitrate dehydrogenase [NADP] cytoplasmic. Briefly: Inhibition of recombinant human IDH1 R132H mutant extracted from Escherichia coli BL21 (DE3) cells using alpha-ketoglutarate as substrate incubated for 60 mins in presence of NADPH by absorbance based assay.

T2 sequence (O75874 2-414 R132H limits assumed): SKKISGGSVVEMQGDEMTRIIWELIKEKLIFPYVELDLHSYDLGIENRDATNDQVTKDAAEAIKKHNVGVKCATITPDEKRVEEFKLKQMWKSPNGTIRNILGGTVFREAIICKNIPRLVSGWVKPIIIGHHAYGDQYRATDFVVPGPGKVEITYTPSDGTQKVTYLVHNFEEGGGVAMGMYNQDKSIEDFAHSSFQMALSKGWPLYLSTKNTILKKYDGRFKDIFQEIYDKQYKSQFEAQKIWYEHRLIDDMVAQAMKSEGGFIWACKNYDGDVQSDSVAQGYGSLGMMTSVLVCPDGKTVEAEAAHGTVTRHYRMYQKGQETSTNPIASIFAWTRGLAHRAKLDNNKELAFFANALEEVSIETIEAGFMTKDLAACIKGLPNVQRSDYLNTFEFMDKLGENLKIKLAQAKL
T1 sequence (O75874 2-414 R132C limits assumed): as the sequence (O75874 2-414 R132H limits assumed) above, with H131C counted along it
Sequence of Isocitrate dehydrogenase [NADP] cytoplasmic (Homo sapiens, UniProt O75874) (O75874 whole entry): as the sequence (O75874 whole entry R132C) above, with C132R counted along it

On to `COc1c(C)cc(NC(=O)c2nn(Cc3ccc(F)cc3)c3c2CN(C(=O)c2ccc[nH]2)C[C@]3(C)C(N)=O)cc1C`, for which the results for the IC50 in data set [1] and in data set [2] were 8.8 nM and 15.2 nM, respectively.

With `COc1ccc(-c2cc(-c3ccc(O)cc3)nc(-c3ncccn3)n2)c(O)c1`, the figures for the concentration giving a half-maximal response (EC50) in data set [3] and in [8] were 263 nM and 279 nM, respectively. Moreover, the inhibition in [4] is 82%; in data set [5], 97.5%; in [9] it was 73.1%; in data set [10] it was more than 100%. Besides, the values for the GC50 in the data set with U-87 MG [6] and in the data set on U-87 MG [11] were more than 20000 nM and 6800 nM, respectively. The IC50 in data set [7] was 78.9 nM; in data set [12], more than 20000 nM; in data set [13] it was 90.2 nM. Besides, the Activity result in the data set on L02 is given as “Toxic”.

What is called IC50 is the midpoint of a concentration-inhibition curve. Broadly, the EC50 is the concentration that produces a half-maximal response. As a reminder, the inhibition is how much of the control response was suppressed.
